The target of data set [1] is MMP-9 (human leukocyte gelatinase) (Homo sapiens (Human), UniProt P14780). Nature of the data set: MMP-9 inhibition in vitro, octapeptide substrate, HPLC. The class given is biochemical. The settings on record: read-out: Maximum Inhibition At 100 μM compound (MMP-9). From the text: In contrast all three chemically-modified curcumins at 100 μm final concentration inhibited gelatinase activity by 68-100% (FIG. 6 and Table 6).

For data set [2], the target named is MMP-13 (Collagenase-3) (Homo sapiens (Human), UniProt P45452). Nature of the data set: MMP-13 inhibition in vitro, octapeptide substrate, HPLC. The class given is biochemical. The conditions noted are these: for inhibition at 100 µM: read-out: MMP-13 Maximum Inhibition @100 μM; for MMP-13 Ratio (IC50 test compound/IC50 standard): standard 1,10-phenanthroline.
Data set [3] has as its target MMP-2 (Homo sapiens (Human), UniProt P08253). Put plainly: MMP-2 inhibition in vitro, octapeptide substrate, HPLC. The settings on record: for inhibition at 100 µM: read-out: MMP-2 Maximum Inhibition @100 μM; for MMP-2 Ratio (IC50 test compound/IC50 standard): standard 1,10-phenanthroline. Type of data set: biochemical.
Data set [4] is described as follows: Solubility in aqueous solutions. Type of data set: physicochemical. The conditions noted are these: comparative.
In data set [5] the test system is TNF-α. Nature of the data set: Inhibition of TNF-α production by LPS-stimulated monocytes. Type of data set: cell-based, human. The conditions noted are these: Homo sapiens, Monocyte, 18 h, read-out: % Inhibition of TNF-α produced by stimulated Monocytes with LPS @ 18 h. The method, then:
(§1) Briefly, human peripheral blood monocytes (HMs) were isolated from a leukocyte concentrate by density gradient centrifugation (Lymphoprep) and the isolated HMs cultured (2 h, 37° C.) to remove non-adherent cells. The adherent HMs wore cultured for 18 h (1×10^6 cells/well, 24-well plates)±endotoxin (LPS)±different compounds dissolved in DMSO (the final concentration of DMSO in the RPMI serum-free culture media with Pen./Strep. antibiotics was no greater than 0.5%). After incubation, the proinflammatory cytokines, TNFα, […], MCP-1 and IL-6 were measured in the conditioned media by ELISA and cytotoxicity was assessed by measuring the absorbance (490 nm) of formazan produced by reduction of MTS. The HMs alone±0.1-0.5% DMSO produced minimal levels of these pro-inflammatory cytokines. However, addition of 100 ng/ml or 10 μg/ml of LPS both dramatically stimulated cytokine production.
The cytokine levels were measured by Luminex multiplex, a method that allows the simultaneous measurement of different biological markers.

Data set [6] relates to human monocytes. Nature of the data set: Cytotoxicity in human monocytes (MTS). The class given is cell-based. The method, then: as §1, with “The adherent HMs wore cultured for 18 h (1×10^6 cells/well, 24-well plates)±endotoxin (LPS)±different compounds dissolved in DMSO (the final concentration of DMSO in the RPMI serum-free culture media with Pen./Strep. antibiotics was no greater than 0.5%).” left out

Chain of MMP-2 (P08253 110-660, species assumed): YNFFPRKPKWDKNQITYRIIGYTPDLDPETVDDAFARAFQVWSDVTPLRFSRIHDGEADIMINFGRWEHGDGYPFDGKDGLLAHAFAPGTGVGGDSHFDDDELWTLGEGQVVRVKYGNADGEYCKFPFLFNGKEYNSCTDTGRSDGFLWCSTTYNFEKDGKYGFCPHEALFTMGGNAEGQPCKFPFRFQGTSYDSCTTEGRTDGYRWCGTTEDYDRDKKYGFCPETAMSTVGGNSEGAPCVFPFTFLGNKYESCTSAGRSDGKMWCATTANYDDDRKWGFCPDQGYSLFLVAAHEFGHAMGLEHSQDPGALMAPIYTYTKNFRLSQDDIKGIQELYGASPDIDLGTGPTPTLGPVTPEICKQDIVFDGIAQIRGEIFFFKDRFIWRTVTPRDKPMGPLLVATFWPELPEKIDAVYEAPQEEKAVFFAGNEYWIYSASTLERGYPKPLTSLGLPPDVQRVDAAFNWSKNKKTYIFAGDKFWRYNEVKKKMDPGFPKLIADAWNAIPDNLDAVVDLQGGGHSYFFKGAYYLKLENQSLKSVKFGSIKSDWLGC
Chain of MMP-9 (human leukocyte gelatinase) (P14780 94-707): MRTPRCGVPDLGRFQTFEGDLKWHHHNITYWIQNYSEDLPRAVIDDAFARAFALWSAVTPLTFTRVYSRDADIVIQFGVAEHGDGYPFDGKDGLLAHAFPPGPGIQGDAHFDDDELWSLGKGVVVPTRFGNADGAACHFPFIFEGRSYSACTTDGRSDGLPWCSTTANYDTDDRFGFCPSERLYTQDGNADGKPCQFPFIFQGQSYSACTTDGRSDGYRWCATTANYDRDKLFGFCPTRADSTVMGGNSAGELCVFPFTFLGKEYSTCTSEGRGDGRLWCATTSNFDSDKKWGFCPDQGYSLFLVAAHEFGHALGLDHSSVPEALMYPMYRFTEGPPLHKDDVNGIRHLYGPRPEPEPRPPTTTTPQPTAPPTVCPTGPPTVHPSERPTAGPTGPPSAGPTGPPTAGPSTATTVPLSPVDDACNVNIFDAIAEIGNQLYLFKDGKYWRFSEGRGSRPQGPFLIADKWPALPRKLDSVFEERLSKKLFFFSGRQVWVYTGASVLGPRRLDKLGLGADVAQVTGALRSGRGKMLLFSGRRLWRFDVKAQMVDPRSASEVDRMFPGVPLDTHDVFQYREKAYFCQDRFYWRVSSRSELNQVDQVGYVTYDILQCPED

Usually inhibition stands for the relative decrease from the control value, in per cent. `c1cnc2c(c1)ccc1cccnc12` [1,10-phenanthroline, 1,10-O-phenanthroline, reference compound]: the inhibition at 100 µM in data set [1] is 100%. In addition, in data set [2], the inhibition at 100 µM was 100% and the “MMP-13 Ratio (IC50 test compound/IC50 standard)” value (“MMP-13 Ratio” below) turned out to be 1.0. In data set [3], the inhibition at 100 µM came to 60% and the “MMP-2 Ratio (IC50 test compound/IC50 standard)” value (from here on “MMP-2 Ratio”) came out at 1.0.
With `COC(=O)C(C(=O)/C=C/c1ccccc1)C(=O)/C=C/c1ccccc1` [Compound 2], in data set [4], the Solubility result was “improved solubility”.
As for `COC(=O)C(C(=O)/C=C/c1ccc(O)cc1)C(=O)/C=C/c1ccc(O)cc1` [Compound 3, 1,7-Bis(4-hydroxyphenyl)-4-methoxycarbonylhepta-1E,6E-dien-3,5-dione], the figures for the inhibition at 100 µM in data set [1], in data set [2] and in data set [3] were 68%, 76% and 60%, respectively. Further, in data set [2], the “MMP-13 Ratio” value is 2.0. For the same molecule, in data set [3], the “MMP-2 Ratio” value came out at 1.0. In addition, in data set [4], the Solubility result was “more soluble in aqueous solutions than compound 1”.
For `COc1cc(/C=C/C(=O)CC(=O)/C=C/c2ccc(N(C)C)cc2)ccc1O` [Compound 4], the inhibition at 100 µM stood at 100% in data set [1], 50% in data set [2] and 36% in data set [3]. In addition, the “MMP-13 Ratio” value in data set [2] was 62.5. The “MMP-2 Ratio” value in data set [3] is reported as greater than 3.6.
Turning to `COc1cc(/C=C/C(=O)C(C(=O)/C=C/c2ccc(O)c(OC)c2)C(=O)Nc2ccccc2)ccc1O` [Compound 6, 1,7-Bis(4-hydroxy-3-methoxyphenyl)-4-N-phenylaminocarbonylhepta-1E,6E-dien-3,5-dione], the inhibition at 100 µM in data set [2] turned out to be 100%; in data set [3], 53%.
Regarding `O=C(/C=C/c1ccc(O)cc1)C(C(=O)/C=C/c1ccc(O)cc1)C(=O)Nc1ccccc1` [Compound 7, 1,7-Bis(4-hydroxyphenyl)-4-N-phenylaminocarbonylhepta-1E,6E-dien-3,5-dione], in data set [2], the inhibition at 100 µM was 77% and the “MMP-13 Ratio” value is reported as less than 0.3. In addition, in data set [3], the inhibition at 100 µM was 45% and the “MMP-2 Ratio” value is listed as 1.8.
In the case of `CN(C)c1ccc(/C=C/C(=O)C(C(=O)/C=C/c2ccc(N(C)C)cc2)C(=O)Nc2ccccc2)cc1` [Compound 8, 1,7-Bis(4-dimethylaminophenyl)-4-N-phenylaminocarbonylhepta-1E,6E-dien-3,5-dione], in data set [2], the inhibition at 100 µM was 53% and the “MMP-13 Ratio” value stood at 11.3.
In the case of `COc1cc(/C=C/C(=O)CC(=O)/C=C/c2ccc(O)c(OC)c2)ccc1O` [Curcumin, curcumin], in data set [5] (10 uM), the inhibition at 10 µM was 0%. For the same molecule, the inhibition at 20 µM in data set [5] (20 uM) was 0%. In data set [5] (50 uM), the inhibition at 50 µM is 80%. The “Cytotoxicity Monocytes @ 5 h incubation” value was found to be 10 uM - 0% in data set [6] (10 uM), 20 uM - 20% in data set [6] (20 uM) and 50 uM - 50% in data set [6] (50 uM). Also, the “Cytotoxicity Monocytes @ 18 h incubation” value in data set [6] (10 uM) came to 10 uM - 0%; in data set [6] (20 uM) it was 20 uM - 20%; in data set [6] (50 uM) it was 50 uM - 77%. Besides, in data set [6] (50 and 100 μM, with some precipitation), the “Cytotoxicity in monocyte culture” value is given as “significant cytotoxicity”. In addition, the inhibition at 100 µM in data set [1] is 58%; in data set [3], 54%. Also, in data set [4], the Solubility result is recorded as “insoluble”.

Source of the values: patent US10669227B2 (THE RESEARCH FOUNDATION OF STATE UNIVERSITY OF NEW YORK, priority 2009, dated 2020).
